Measured values taken from patent US6403575B1, “3-Pyridyl enantiomers and their use as analgesics” (Abbott Laboratories, priority 1996, dated 2002).
Where a name gives a salt, the structure may show the parent alone. Read-outs that look alike come from different tables or passages of the source.

Columns and labels:
[1] = biological target: T1, neuronal nicotinic acetylcholine receptors (Rattus norvegicus, UniProt P09483+P12390); assay: [3H]-cytisine binding to neuronal nicotinic acetylcholine receptors, whole rat brain membranes; details: [3H]-cytisine 1.25 nM, whole rat brain membranes; read-out: [3H] CYT Ki
T1 construct: crude synaptic membrane preparations from whole rat brain; from tissue; host or cells: whole rat brain, crude synaptic membranes
T1 sequence (P09483 31-630): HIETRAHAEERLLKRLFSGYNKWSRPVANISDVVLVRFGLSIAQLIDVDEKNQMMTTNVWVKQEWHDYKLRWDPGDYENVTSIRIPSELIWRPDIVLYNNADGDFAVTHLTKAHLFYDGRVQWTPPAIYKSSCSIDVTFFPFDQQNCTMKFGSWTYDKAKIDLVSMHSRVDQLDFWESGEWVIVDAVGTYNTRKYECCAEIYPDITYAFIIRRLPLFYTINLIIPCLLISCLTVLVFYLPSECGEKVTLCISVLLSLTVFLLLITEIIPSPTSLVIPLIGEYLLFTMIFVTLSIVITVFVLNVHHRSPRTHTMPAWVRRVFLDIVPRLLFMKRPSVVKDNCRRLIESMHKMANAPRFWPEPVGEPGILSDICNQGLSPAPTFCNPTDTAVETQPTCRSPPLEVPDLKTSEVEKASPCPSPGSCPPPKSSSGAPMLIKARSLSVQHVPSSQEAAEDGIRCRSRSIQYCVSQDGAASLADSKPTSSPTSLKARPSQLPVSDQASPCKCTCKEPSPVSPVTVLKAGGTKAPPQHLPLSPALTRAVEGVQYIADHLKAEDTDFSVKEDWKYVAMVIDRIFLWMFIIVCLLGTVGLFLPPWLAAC
T1 sequence (P12390 25-500): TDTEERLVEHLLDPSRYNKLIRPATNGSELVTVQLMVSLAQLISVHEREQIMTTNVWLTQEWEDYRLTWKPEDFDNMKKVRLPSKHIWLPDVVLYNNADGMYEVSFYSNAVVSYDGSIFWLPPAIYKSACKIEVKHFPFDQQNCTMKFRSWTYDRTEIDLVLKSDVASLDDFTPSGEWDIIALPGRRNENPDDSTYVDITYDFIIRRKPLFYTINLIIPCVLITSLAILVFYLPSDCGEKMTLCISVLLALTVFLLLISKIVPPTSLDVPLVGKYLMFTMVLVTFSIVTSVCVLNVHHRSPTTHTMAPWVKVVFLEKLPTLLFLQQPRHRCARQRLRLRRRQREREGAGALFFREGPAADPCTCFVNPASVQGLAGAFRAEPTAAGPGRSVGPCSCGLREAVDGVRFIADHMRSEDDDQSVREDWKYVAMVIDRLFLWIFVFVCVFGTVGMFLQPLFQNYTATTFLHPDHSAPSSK
Experimental: Protocol for Determination of Nicotinic Acetylcholine Channel Receptor Binding Potencies of Ligands
Binding of [^3H]-cytisine ([^3H]-CYT) to neuronal nicotinic acetylcholine receptors was accomplished using crude synaptic membrane preparations from whole rat brain (Pabreza et al., Molecular Pharmacol., 1990, 39:9). Washed membranes were stored at −80° C. prior to use. Frozen aliquots were slowly thawed and resuspended in 20 volumes of buffer (containing: 120 mM NaCl, 5 mM KCl, 2 mM MgCl2, 2 mM CaCl2 and 50 mM Tris-Cl, pH 7.4 @4° C.). After centrifuging at 20,000×g for 15 minutes, the pellets were resuspended in 30 volumes of buffer. Homogenate (containing 125-150 μg protein) was added to triplicate tubes containing concentrations of test compound and [^3H]-CYT (1.25 nM) in a final volume of 500 μL. Samples were incubated for 60 minutes at 4° C., then rapidly filtered through Whatman GF/B filters presoaked in 0.5% polyethyleneimine using 3×4 mL of ice-cold buffer. The filters are counted in 4 mL of Ecolume® (ICN). Nonspecific binding was determined in the presence of 10 μM (−)-nicotine and values were expressed as a percentage of total binding.

[2] = biological target: T2, peripheral ganglionic receptors (Homo sapiens, UniProt P30926+P32297); assay: 86Rb+ flux activation in IMR-32 human neuroblastoma cells; assay type: cell-based; details: 1 μM compound, % of maximum response to (S)-nicotine
T2 construct: Cells of the IMR-32 human neuroblastoma clonal cell line (ATCC, Rockville, Md.); host or cells: IMR-32 human neuroblastoma cells
T2 sequence (P32297 32-505): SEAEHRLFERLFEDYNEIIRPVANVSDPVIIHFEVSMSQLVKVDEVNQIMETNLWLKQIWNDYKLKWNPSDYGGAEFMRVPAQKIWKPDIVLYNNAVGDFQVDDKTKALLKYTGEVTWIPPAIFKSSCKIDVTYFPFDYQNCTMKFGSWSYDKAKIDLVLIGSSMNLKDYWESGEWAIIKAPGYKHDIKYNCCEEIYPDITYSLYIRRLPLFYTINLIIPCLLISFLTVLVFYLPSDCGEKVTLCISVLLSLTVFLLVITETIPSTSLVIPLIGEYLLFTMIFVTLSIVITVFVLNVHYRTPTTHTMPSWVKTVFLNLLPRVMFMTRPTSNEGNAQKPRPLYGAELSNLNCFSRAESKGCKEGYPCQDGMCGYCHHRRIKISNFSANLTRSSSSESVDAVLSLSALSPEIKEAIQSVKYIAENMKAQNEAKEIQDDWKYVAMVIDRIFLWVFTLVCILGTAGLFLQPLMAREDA
T2 sequence (P30926 22-498): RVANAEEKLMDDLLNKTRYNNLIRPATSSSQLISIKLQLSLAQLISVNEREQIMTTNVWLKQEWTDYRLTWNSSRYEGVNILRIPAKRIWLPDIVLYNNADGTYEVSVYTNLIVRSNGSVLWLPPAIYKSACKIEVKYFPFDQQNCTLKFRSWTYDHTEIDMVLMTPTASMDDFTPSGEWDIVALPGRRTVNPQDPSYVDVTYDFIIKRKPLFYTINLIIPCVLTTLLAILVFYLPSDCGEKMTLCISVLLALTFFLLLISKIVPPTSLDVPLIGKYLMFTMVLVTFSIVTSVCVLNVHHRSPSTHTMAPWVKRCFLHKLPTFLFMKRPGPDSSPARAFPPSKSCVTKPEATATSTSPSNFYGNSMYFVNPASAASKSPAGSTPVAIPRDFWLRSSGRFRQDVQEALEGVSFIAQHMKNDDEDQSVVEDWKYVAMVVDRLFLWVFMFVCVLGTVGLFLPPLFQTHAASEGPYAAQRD
Experimental: Protocol for the Determination of Ability of Nicotinic Acetylcholine Receptor Ligands to Activate Peripheral Ganglionic Receptors
Cells of the IMR-32 human neuroblastoma clonal cell line (ATCC, Rockville, Md.) were maintained in a log phase of growth according to established procedures. Experimental cells were seeded at a density of 500,000 cells/mL into a 24-well tissue culture dish. Plated cells were allowed to proliferate for at least 48 hours before loading with 2 μCi/mL of ^86Rb^+ (35 Ci/mmol) overnight at 37° C. The ^86Rb^+ efflux assays were performed according to previously published protocols (Lukas, R. J., J. Pharmacol. Exp. Ther., 265: 294-302, 1993) except serum-free Dulbecco's Modified Eagle's Medium was used during the ^86Rb^+ loading, rinsing, and agonist-induced efflux steps. Data reflect the activation of ^86Rb^+ flux at a concentration of 1 μM, and reflect the response as a percentage of the maximum response elicited by (S)-nicotine.

mice = assay: Mouse Hot Plate Paradigm; assay type: in vivo; set-up: key to MED Hot plate model (μmol/kg, i.p.): NS = no significant effect observed relative to saline controls at the doses tested; details: 30 minutes prior to testing, 55° C.; for minimal effective dose: ip, 0.5 h, i.p., read-out: MED Hot plate model (μmol/kg, i.p.)
rats [3] = assay: Chung Model of Neuropathic Pain; assay type: in vivo; set-up: key: NS = no significant effect observed relative to saline controls at the doses tested; details: rat, 50% threshold to VonFrey hairs
rats [4] = assay: Paw Thermal Stimulator (Hotbox) Model; assay type: in vivo; details: rat, i.p., tested 0.62 to 6.2 μmol/kg
Excerpt: For assessing nociceptive responses to an acute thermal stimulus, a commercially available paw thermal stimulator was utilized (Anesthesiology Research Laboratory, Department of Anesthesiology, University of California at San Diego, La Jolla, Calif.). This device has been previously described (Dirig, D. M. and Yaksh, T. L., Pain, 62: 321-328, 1995) and is based on the initial work of Hargreaves et al. (Pain, 32: 77-88, 1988). Rats were placed in Plexiglas cubicles that were located on a glass surface of the apparatus. The surface of the glass was maintained at 30° C. A thermal stimulus was applied to the bottom of the rear foot of the rat via a movable focused projection bulb. The stimulus current was maintained at 4.8 Amps. The latency until the animal moved its foot from the stimulus was recorded automatically by use of photodiode motion sensors. In the current studies, a 20 second cut-off was employed to limit possible tissue damage following exposure to the stimulus.
All studies began with a 20 min acclimation period. Following the acclimation period, a baseline measure was determined for each animal. Following determination of baseline, treatments were administered and measures were taken at various time points following treatment (e.g., 15, 30, and 45 min). For clarity, data were collapsed over time for statistical analysis (unless otherwise noted).
Stock solutions of compounds were prepared in absolute ethanol at a concentration of 62 μmol/ml. From this, solutions were made with 10% ethanol, and dosed by injection i.p. Compounds were tested in the dose range of from 0.62 to 6.2 μmol/kg.
For measurements, the following protocol was utilized. Six animals were used in each run. For any given measure (e.g., time point), one foot of each of the 6 animals was tested and then the process was repeated for the opposite foot. Mean values for the response were then computed based on the two scores.

rat spinal cord cultures = assay: Neuroprotection against substance P or glutamate toxicity in primary spinal cord cultures (LDH release); assay type: cell-based; details: for block of SP-induced toxicity: SP 30 μM, spantide II 100 μM, MK-801

| Molecule | Ki [1] [pM] | IMR-32 % maximal nicotine response at 1 μM Cmpd conc'n [2] [%] | analgesic dose (rats [4]) [µmol/kg] | other results |
| --- | --- | --- | --- | --- |
| Fc1cncc(OC[C@@H]2CCN2)c1 [Example 10, 5-((2S)-Azetidinylmethyloxy)-3-fluoropyridine dihydrochloride] | 90 | 28 | – | minimal effective dose (mice): 6.2 µmol/kg; MED Chung model (μmol/kg, i.p.) (rats [3]): 0.62 µmol/kg |
| Cc1cncc(OC[C@@H]2CCN2)c1 [Example 13, 5-Methyl-3-((2S)-Azetidinylmethyloxy)pyridine dibenzoate] | 50 | 27 | – | MED Hot plate model (μmol/kg, i.p.) (mice): NS |
| Cc1cncc(OC[C@H]2CCN2)c1 [Example 14, 5-Methyl-3-((2R)-azetidinylmethyloxy)pyridine hydrochloride] | 180 | 15 | – | minimal effective dose (mice): 62 µmol/kg |
| Clc1cc(OC[C@@H]2CCN2)cnc1Cl [Example 15, 5-((2S)-azetidinylmethoxy)-2,3-dichloropyridine hydrochloride] | 20 | 117 | – | minimal effective dose (mice): 1.9 µmol/kg; MED Chung model (μmol/kg, i.p.) (rats [3]): NS |
| Clc1cc(OC[C@H]2CCN2)cnc1Cl [Example 16, 5-((2R)-azetidinylmethoxy)-2,3-dichloropyridine hydrochloride] | 60 | 85 | – | minimal effective dose (mice): 6.2 µmol/kg; MED Chung model (μmol/kg, i.p.) (rats [3]): 0.19 µmol/kg |
| Clc1ncc(OC[C@H]2CCN2)cc1Br [Example 18, 5-((2R)-azetidinylmethoxy)-3-bromo-2-chloropyridine hydrochloride] | 20 | 93 | – | minimal effective dose (mice): 0.62 µmol/kg |
| C[C@H](NC(=O)OC(C)(C)C)C(=O)N1CC[C@@H]1COc1ccc(F)nc1 [Example 54] | – | – | >6.2 | – |
| O=C1CCC(=O)N1CN1CC[C@@H]1COc1ccc(F)nc1 [Example 71] | – | – | 0.62 | – |
| O=C1c2ccccc2C(=O)N1CN1CC[C@@H]1COc1ccc(F)nc1 [Example 72] | – | – | 0.62 | – |
| CC1(C)CC(=O)C=C(N2CC[C@@H]2COc2ccc(F)nc2)C1 [Example 75] | – | – | 6.2 | – |
| O=C(Oc1ccccc1)N1CC[C@@H]1COc1ccc(F)nc1 [Example 79] | – | – | 0.62 | – |
| O=C(Oc1ccc([N+](=O)[O-])cc1)N1CC[C@@H]1COc1ccc(F)nc1 [Example 80] | – | – | 0.62 | – |
| COc1ccc(OC(=O)N2CC[C@@H]2COc2ccc(F)nc2)cc1 [Example 81] | – | – | 0.62 | – |
| O=C(N1CCCC1)N1CC[C@@H]1COc1ccc(F)nc1 [Example 92] | – | – | >6.2 | – |
| O=C(CCSSCCC(=O)N1CC[C@@H]1COc1ccc(F)nc1)N1CC[C@@H]1COc1ccc(F)nc1 [Example 95] | – | – | >6.2 | – |
| Cl.Fc1ncccc1OC[C@@H]1CCN1 [Example 122, 2-Fluoro-3-(2(S)-azetidinylmethoxy)pyridine hydrochloride] | – | – | – | MED Chung model (μmol/kg, i.p.) (rats [3]): 1.9 µmol/kg |
| C[C@]12N[C@H](Cc3ccccc31)c1ccccc12 [MK-801] | – | – | – | block of Glu-induced toxicity (rat spinal cord cultures; Glu 300 μM, MK-801 1 μM): blocked; block of SP-induced toxicity (rat spinal cord cultures): cannot prevent |
| CCN1C[C@]2(COC(=O)c3ccccc3N3C(=O)C[C@H](C)C3=O)CC[C@H](OC)[C@@]34[C@@H]5C[C@H]6[C@H](OC)[C@@H]5[C@](O)(C[C@@H]6OC)[C@@](O)([C@@H](OC)[C@H]23)[C@@H]14 [methyllycaconitine] | – | – | – | block of the neuroprotective effect by nicotinic antagonists (rat spinal cord cultures; mecamylamine 10 μM, MLA 10 nM, α-BTX 1 nM): blocked |
| spantide II | – | – | – | block of SP-induced toxicity (rat spinal cord cultures): blocked |
| α-bungarotoxin | – | – | – | block of the neuroprotective effect by nicotinic antagonists (rat spinal cord cultures): blocked |
